According to patent publication US20250381324A1, “CD31 MIMETIC COATING FOR ENDOVASCULAR STENT” (INSERM (Institut National de la Santé et de la Recherche …, priority 2021, published 2025):
Bridge positions count the residues as written; N and C are the ends. Square brackets hold non-standard residues; d marks the D form. Primed or numbered codes have the meaning given here. Ends that are not written are not given here. * marks the point of attachment. Lys(N3) = [N-]=[N+]=NCCCC[C@H](N)C(=O)O; Ttds = NCCCOCCOCCOCCCNC(=O)CCC(=O)*; hCys = N[C@@H](CCS)C(=O)O; PEG4′ = not defined here

Legend:
[1] = tested on: Primary Human Aortic Endothelial Cells (HAEC); experiment: Human aortic endothelial cells grown 48 h on bare or peptide-coated nitinol disks; F-actin / CD31 staining and image analysis; assay type: cell-based; conditions: for CD31 expression (physiologic endothelial phenotype), Integrated Density / F-actin expression (cellular stress), Integrated Density: HAEC 48 h on coated nitinol disks; for CD31 expression (physiologic endothelial phenotype), Integrated Density: compared to other modified disks and bare controls, FIGS. 2, 4, 5; for CD31/Actin score: Example 2, FIG. 25, repeated experiments (SP547, SP548 only one measure); for F-actin expression (cellular stress), Integrated Density: compared to bare metal, FIGS. 2, 3, 5
Description: Nitinol disks are left untouched (bare metal) or coated with a domain 1, domain 2 or domain 1 and 2 CD31 analog peptide. The tested peptide is grafted to the nitinol disk following a polydopamine, DBCO-PEG4-amine and azide CD31 derivative peptide using a sequential dip-coating layering procedure. After this step, all the disks are incubated with Human aortic endothelial cells for 48 h. Disks are then rinsed and the cells are fixed in a formalin solution before staining. The staining is fulfilled using phalloidin coupled to AlexaFluor®488 dye (green fluorescence for Actin), DAPI is used for DNA staining and a domain 1 CD31 antibody coupled to APC is used for external Domain 1 staining. The cell adhesion and Actin/CD31 expression was evaluated by image analysis of the surface after staining.
In particular, as per FIG. 2 the bare or coated nitinol disks were placed at the bottom of culture wells. Primary Human Aortic Endothelial Cells (HAEC) were allowed to grow on the disks for a period of 48 h. The disks were thereafter rinsed with phosphate buffered saline, fixed in formalin, and processed for fluorescence microscopy. Disk-adherent cells were immersed in a solution comprising Hoechst 33342 (1 μg/ml, to stain the nuclei), phalloidin coupled to AlexaFluor®488 dye (0.5 μM, to stain F-actin fibers) and a monoclonal antibody directed against CD31 domain 1, coupled to allophycocyanin (to detect the presence and localization of intact CD31 at the cell surface) for 1 hour at 37° C., washed and mounted face down on glass bottom imaging chambers for imaging with an inverted fluorescence microscope.
Surface type is indicated on the Y axis, data are expressed as average±SD (N=6/surface type). Each dot corresponds to a specific surface modification. The F-actin expression relates the cellular stress of the cell in presence of the exogenous material.
In FIG. 4 the surface type is indicated on the Y axis. Each dot corresponds to a specific surface modification. Data are expressed as “Integrated Density” average±SD (N=6/surface type). CD31 expression relates the capacity of endothelial cells to adopt a physiologic phenotype while growing on a given substrate. An important variability is observed in terms of CD31 expression by HAEC according to the surface modification of the nitinol disks.
The “mirror” bars of FIG. 5 report the average Integrated Density of F-actin (left) and of CD31 (right) staining for each of the indicated (Y axis) type of peptide coated onto the disk surface and bare disks. Data are sorted (from the top to the bottom) according to the increase in the cellular stress (actin expression) of each coating. As shown on the figure, the degree of cellular stress (as detected by a high actin expression) and impaired endothelial phenotype (documented by a low CD31 expression) is evident on HAEC grown onto bare metal disks.
The data shown in FIG. 6 are expressed as the ratio between CD31 and F-actin expression.
The effect of different peptides, belonging to the different groups, were tested in batches following the same protocol as in FIG. 6. Different peptides from each group were tested in batches and the effect of individual peptides was repeatedly assessed in separate experiments. Data from all experiments were obtained by computer-assisted analysis of images of the disk side covered with endothelial cells, captured in the blue, green and red channel of an inverted fluorescence microscope. The functional score of the peptides belonging to the different groups was calculated by multiplying the number of cells (as detected by the number of blue, Dapi+ nuclei) for the integrated density of CD31 expression (red signal provided by the binding of a mouse anti-human CD31 monoclonal antibody, clone 9G11, conjugated allophycocyanin) and their product being divided for the integrated density of the F-actin polymerization (Phalloidin coupled to a green fluorochrome). […]

[2] = tested on: endothelial cells; conditions: immobilized peptide, in vitro; cited from earlier work

Ac-K(N3)-(Ttds)4-PRhCTLDKKEAIQGGIVRVNhCSVPEEK-CONH2 ({Ac-Lys(N3)-Ttds-Ttds-Ttds-Ttds}-PR[hCys]TLDKKEAIQGGIVRVN[hCys]SVPEEK-NH2; disulfide 3-20) [SP1380]
CD31 expression (physiologic endothelial phenotype), Integrated Density [1]: evident positive effect in terms of CD31 expression

Ac-K(N3)-GGSGGSGG-YKDDVLFYNISSMKST-NH2 (Ac-[Lys(N3)]GGSGGSGGYKDDVLFYNISSMKST-NH2; SMILES CC[C@H](C)[C@H](NC(=O)[C@H](CC(N)=O)NC(=O)[C@H](Cc1ccc(O)cc1)NC(=O)[C@H](Cc1ccccc1)NC(=O)[C@H](CC(C)C)NC(=O)[C@@H](NC(=O)[C@H](CC(=O)O)NC(=O)[C@H](CC(=O)O)NC(=O)[C@H](CCCCN)NC(=O)[C@H](Cc1ccc(O)cc1)NC(=O)CNC(=O)CNC(=O)[C@H](CO)NC(=O)CNC(=O)CNC(=O)[C@H](CO)NC(=O)CNC(=O)CNC(=O)[C@H](CCCCN=[N+]=[N-])NC(C)=O)C(C)C)C(=O)N[C@@H](CO)C(=O)N[C@@H](CO)C(=O)N[C@@H](CCSC)C(=O)N[C@@H](CCCCN)C(=O)N[C@@H](CO)C(=O)N[C@H](C(N)=O)[C@@H](C)O) [SP547]
CD31/Actin score [1]: equivalent to those of sections coated by other peptides according to the invention

Ac-K(N3)-PEG4-PRVTLDKKEAIQGGIVRVNSSVPEEK-CONH2 (Ac-[Lys(N3)][PEG4′]PRVTLDKKEAIQGGIVRVNSSVPEEK-NH2) [SP1071]
CD31/Actin score [1]: significantly higher than those obtained by the bare metal disks or by disks coated with PDA alone

Ac-YKDDVLFYNISSMKST-GGSGGSGG-K(N3)-NH2 (Ac-YKDDVLFYNISSMKSTGGSGGSGG[Lys(N3)]-NH2; SMILES CC[C@H](C)[C@H](NC(=O)[C@H](CC(N)=O)NC(=O)[C@H](Cc1ccc(O)cc1)NC(=O)[C@H](Cc1ccccc1)NC(=O)[C@H](CC(C)C)NC(=O)[C@@H](NC(=O)[C@H](CC(=O)O)NC(=O)[C@H](CC(=O)O)NC(=O)[C@H](CCCCN)NC(=O)[C@H](Cc1ccc(O)cc1)NC(C)=O)C(C)C)C(=O)N[C@@H](CO)C(=O)N[C@@H](CO)C(=O)N[C@@H](CCSC)C(=O)N[C@@H](CCCCN)C(=O)N[C@@H](CO)C(=O)N[C@H](C(=O)NCC(=O)NCC(=O)N[C@@H](CO)C(=O)NCC(=O)NCC(=O)N[C@@H](CO)C(=O)NCC(=O)NCC(=O)N[C@@H](CCCCN=[N+]=[N-])C(N)=O)[C@@H](C)O) [SP548]
CD31/Actin score [1]: equivalent to those of sections coated by other peptides according to the invention

KWPALFVR [P8RI]
blood element reaction [2]: reduces the blood element reaction

RDQNFVILEFP-PEG4-K(N3)-NH2 [SP1070]
CD31/Actin score [1]: significantly higher than those obtained by the bare metal disks or by disks coated with PDA alone | F-actin expression (cellular stress), Integrated Density [1]: does not show an influence on the cellular stress compared to the bare metal

SHQMLFYKDDVLFYNISSS-GGSGGSGG-K(N3)-CONH2 (SHQMLFYKDDVLFYNISSSGGSGGSGG[Lys(N3)]-NH2; N-terminus assumed; SMILES CC[C@H](C)[C@H](NC(=O)[C@H](CC(N)=O)NC(=O)[C@H](Cc1ccc(O)cc1)NC(=O)[C@H](Cc1ccccc1)NC(=O)[C@H](CC(C)C)NC(=O)[C@@H](NC(=O)[C@H](CC(=O)O)NC(=O)[C@H](CC(=O)O)NC(=O)[C@H](CCCCN)NC(=O)[C@H](Cc1ccc(O)cc1)NC(=O)[C@H](Cc1ccccc1)NC(=O)[C@H](CC(C)C)NC(=O)[C@H](CCSC)NC(=O)[C@H](CCC(N)=O)NC(=O)[C@H](Cc1c[nH]cn1)NC(=O)[C@@H](N)CO)C(C)C)C(=O)N[C@@H](CO)C(=O)N[C@@H](CO)C(=O)N[C@@H](CO)C(=O)NCC(=O)NCC(=O)N[C@@H](CO)C(=O)NCC(=O)NCC(=O)N[C@@H](CO)C(=O)NCC(=O)NCC(=O)N[C@@H](CCCCN=[N+]=[N-])C(N)=O) [SP745]
CD31/Actin score [1]: significantly higher than those obtained by the bare metal disks or by disks coated with PDA alone

[Ac-K(N3)-(Ttds)4-PRVTLDKKEAIQGGIVRVNSSVPEEK-Ttds-K^# (CH2CO)-CONH2]-[QHQMLFYhC^#DDVLFYNISSMK-CONH2] (chain 1 {Ac-Lys(N3)-Ttds-Ttds-Ttds-Ttds}-PRVTLDKKEAIQGGIVRVNSSVPEEK-{Ttds-K(CH2CO)-NH2}; chain 2 QHQMLFY[hCys]DDVLFYNISSMK-NH2; also: thioether at chain B 8 to a chain's C-terminus) [SP1383]
CD31/Actin score [1]: significantly higher than those obtained by the bare metal disks or by disks coated with PDA alone

[^#CH2CONH2GTYKSTVIVNNKEKTTAEYQ-(Ttds)4-K(N3)-NH2]-[QHQMLFYhC^#DDVLFYNISSMK-CONH2] (chain 1 GTYKSTVIVNNKEKTTAEYQ-{Ttds-Ttds-Ttds-Ttds-Lys(N3)-NH2}; chain 2 QHQMLFY[hCys]DDVLFYNISSMK-NH2; not fully specified (N-terminus); also: thioether at chain B 8 to a chain's N-terminus) [SP1379]
CD31/Actin score [1]: significantly higher than those obtained by the bare metal disks or by disks coated with PDA alone

hCHQMLFYKDDVLFYNISShCK-Ttds-Ttds-Ttds-Ttds-K(N3)-CONH2 ([hCys]HQMLFYKDDVLFYNISS[hCys]K-{Ttds-Ttds-Ttds-Ttds-Lys(N3)-NH2}; cysteine pairing not given here) [SP1374]
CD31/Actin score [1]: significantly higher than those obtained by the bare metal disks or by disks coated with PDA alone | F-actin expression (cellular stress), Integrated Density [1]: low cellular stress (low actin expression) | CD31 expression (physiologic endothelial phenotype), Integrated Density ([1]; listed as 1374): evident positive effect in terms of CD31 expression | CD31 expression (physiologic endothelial phenotype), Integrated Density ([1]; listed as SP 1374): consistent functional endothelial phenotype (high CD31 expression)
